Reference: ChEMBL document CHEMBL1938230, “6-Position optimization of tricyclic 4-quinolone-based inhibitors of glycogen synthase kinase-3β: discovery of nitrile derivatives with picomolar potency” (Bioorg Med Chem Lett, 2012)

What was measured:
HL-60 [1] = assay: Inhibition of human TAO1/TAO3 in HL-60 cells lysate assessed as reduction of labeling of acyl-phosphate ATP probe at 100 nM
[2] = target: Serine/threonine-protein kinase PLK1 (Homo sapiens) (UniProt P53350); assay: Inhibition of human PLK1 in HL-60 cells lysate assessed as reduction of labeling of acyl-phosphate ATP probe at 100 nM; assay type: cell-free
[3] = target: Cyclin-dependent kinase 1 (Homo sapiens) (UniProt P06493); assay: Inhibition of human CDC2 in HL-60 cells lysate assessed as reduction of labeling of acyl-phosphate ATP probe at 100 nM; assay type: cell-free
HL-60 [4] = assay: Inhibition of human CDK11/CDK8 in HL-60 cells lysate assessed as reduction of labeling of acyl-phosphate ATP probe at 100 nM
HL-60 [5] = assay: Inhibition of human FYN/SRC/YES in HL-60 cells lysate assessed as reduction of labeling of acyl-phosphate ATP probe at 100 nM
[6] = target: Cyclin-dependent kinase 5 (Homo sapiens) (UniProt Q00535); assay: Inhibition of human CDK5 in HL-60 cells lysate assessed as reduction of labeling of acyl-phosphate ATP probe at 100 nM; assay type: cell-free
[7] = target: T1, Serine/threonine-protein kinase TAO2 (Homo sapiens) (UniProt Q9UL54); assay: Inhibition of human TAO2 in HL-60 cells lysate assessed as reduction of labeling of acyl-phosphate ATP probe at 100 nM; assay type: cell-free
T1 sequence (whole entry): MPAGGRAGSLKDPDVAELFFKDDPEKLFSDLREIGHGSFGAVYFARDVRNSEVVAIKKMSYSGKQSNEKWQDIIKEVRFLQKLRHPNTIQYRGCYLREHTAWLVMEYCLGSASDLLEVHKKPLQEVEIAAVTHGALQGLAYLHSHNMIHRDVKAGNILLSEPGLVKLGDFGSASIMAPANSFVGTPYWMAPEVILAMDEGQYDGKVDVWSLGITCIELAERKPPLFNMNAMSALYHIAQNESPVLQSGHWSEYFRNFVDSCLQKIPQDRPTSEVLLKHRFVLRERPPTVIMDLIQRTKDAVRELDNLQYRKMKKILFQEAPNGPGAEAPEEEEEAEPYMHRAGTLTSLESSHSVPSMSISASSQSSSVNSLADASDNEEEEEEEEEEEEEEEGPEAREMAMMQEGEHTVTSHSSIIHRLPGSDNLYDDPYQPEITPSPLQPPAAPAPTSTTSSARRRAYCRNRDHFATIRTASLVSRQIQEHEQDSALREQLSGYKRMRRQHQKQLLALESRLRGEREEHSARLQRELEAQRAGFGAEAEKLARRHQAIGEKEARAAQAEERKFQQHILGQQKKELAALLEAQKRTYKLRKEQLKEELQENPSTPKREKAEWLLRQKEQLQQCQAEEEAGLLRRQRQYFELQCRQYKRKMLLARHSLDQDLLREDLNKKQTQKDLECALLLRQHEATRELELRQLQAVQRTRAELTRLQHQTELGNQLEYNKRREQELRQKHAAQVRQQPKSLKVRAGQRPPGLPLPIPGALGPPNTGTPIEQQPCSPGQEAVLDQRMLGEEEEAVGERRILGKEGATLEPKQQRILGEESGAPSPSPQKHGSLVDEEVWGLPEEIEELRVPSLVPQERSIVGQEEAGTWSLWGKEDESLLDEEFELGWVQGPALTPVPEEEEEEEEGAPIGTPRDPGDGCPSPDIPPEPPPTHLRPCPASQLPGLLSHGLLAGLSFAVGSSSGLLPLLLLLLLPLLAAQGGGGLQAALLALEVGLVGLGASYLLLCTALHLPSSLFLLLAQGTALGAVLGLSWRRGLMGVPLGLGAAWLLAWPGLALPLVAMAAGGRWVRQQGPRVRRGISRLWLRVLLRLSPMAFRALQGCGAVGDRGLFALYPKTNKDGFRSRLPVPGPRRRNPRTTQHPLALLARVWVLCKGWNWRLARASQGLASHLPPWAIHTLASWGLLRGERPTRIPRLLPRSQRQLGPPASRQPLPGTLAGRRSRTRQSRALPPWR

HL-60 [8] = assay: Inhibition of human MST4/YSK1 in HL-60 cells lysate assessed as reduction of labeling of acyl-phosphate ATP probe at 100 nM
[9] = target: Phosphatidylinositol 3-kinase catalytic subunit type 3 (Homo sapiens) (UniProt Q8NEB9); assay: Inhibition of human PIK3C3 in HL-60 cells lysate assessed as reduction of labeling of acyl-phosphate ATP probe at 100 nM; assay type: cell-free
[10] = target: Cyclin-dependent kinase 2 (Homo sapiens) (UniProt P24941); assay: Inhibition of human CDK2 in HL-60 cells lysate assessed as reduction of labeling of acyl-phosphate ATP probe at 100 nM; assay type: cell-free
[11] = target: T2, Serine/threonine-protein kinase TBK1 (Homo sapiens) (UniProt Q9UHD2); assay: Inhibition of human TBK1 in HL-60 cells lysate assessed as reduction of labeling of acyl-phosphate ATP probe at 100 nM; assay type: cell-free
T2 sequence (whole entry): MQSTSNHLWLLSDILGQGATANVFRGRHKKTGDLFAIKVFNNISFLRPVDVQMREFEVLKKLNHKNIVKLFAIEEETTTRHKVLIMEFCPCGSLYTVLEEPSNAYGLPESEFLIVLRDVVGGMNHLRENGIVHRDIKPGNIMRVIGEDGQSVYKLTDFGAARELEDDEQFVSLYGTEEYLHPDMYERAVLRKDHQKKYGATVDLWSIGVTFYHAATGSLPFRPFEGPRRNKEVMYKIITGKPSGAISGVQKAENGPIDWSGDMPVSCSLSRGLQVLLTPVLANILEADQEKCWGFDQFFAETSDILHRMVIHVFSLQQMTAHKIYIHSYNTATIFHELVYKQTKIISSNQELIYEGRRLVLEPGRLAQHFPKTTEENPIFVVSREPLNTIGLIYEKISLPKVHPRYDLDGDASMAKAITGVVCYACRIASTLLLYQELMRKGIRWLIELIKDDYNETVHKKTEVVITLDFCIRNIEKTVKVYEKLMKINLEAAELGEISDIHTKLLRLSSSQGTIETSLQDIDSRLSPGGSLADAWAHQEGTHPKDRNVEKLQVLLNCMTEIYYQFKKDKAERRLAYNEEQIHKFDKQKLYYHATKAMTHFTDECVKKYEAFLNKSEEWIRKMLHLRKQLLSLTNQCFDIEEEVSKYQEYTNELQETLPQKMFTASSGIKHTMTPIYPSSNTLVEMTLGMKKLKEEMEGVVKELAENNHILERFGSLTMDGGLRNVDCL

[12] = target: TRAF2 and NCK-interacting protein kinase (Homo sapiens) (UniProt Q9UKE5); assay: Inhibition of human ZC2/TNIK in HL-60 cells lysate assessed as reduction of labeling of acyl-phosphate ATP probe at 100 nM; assay type: cell-free
Chain of TRAF2 and NCK-interacting protein kinase (Homo sapiens) (Q9UKE5 whole entry, looked up): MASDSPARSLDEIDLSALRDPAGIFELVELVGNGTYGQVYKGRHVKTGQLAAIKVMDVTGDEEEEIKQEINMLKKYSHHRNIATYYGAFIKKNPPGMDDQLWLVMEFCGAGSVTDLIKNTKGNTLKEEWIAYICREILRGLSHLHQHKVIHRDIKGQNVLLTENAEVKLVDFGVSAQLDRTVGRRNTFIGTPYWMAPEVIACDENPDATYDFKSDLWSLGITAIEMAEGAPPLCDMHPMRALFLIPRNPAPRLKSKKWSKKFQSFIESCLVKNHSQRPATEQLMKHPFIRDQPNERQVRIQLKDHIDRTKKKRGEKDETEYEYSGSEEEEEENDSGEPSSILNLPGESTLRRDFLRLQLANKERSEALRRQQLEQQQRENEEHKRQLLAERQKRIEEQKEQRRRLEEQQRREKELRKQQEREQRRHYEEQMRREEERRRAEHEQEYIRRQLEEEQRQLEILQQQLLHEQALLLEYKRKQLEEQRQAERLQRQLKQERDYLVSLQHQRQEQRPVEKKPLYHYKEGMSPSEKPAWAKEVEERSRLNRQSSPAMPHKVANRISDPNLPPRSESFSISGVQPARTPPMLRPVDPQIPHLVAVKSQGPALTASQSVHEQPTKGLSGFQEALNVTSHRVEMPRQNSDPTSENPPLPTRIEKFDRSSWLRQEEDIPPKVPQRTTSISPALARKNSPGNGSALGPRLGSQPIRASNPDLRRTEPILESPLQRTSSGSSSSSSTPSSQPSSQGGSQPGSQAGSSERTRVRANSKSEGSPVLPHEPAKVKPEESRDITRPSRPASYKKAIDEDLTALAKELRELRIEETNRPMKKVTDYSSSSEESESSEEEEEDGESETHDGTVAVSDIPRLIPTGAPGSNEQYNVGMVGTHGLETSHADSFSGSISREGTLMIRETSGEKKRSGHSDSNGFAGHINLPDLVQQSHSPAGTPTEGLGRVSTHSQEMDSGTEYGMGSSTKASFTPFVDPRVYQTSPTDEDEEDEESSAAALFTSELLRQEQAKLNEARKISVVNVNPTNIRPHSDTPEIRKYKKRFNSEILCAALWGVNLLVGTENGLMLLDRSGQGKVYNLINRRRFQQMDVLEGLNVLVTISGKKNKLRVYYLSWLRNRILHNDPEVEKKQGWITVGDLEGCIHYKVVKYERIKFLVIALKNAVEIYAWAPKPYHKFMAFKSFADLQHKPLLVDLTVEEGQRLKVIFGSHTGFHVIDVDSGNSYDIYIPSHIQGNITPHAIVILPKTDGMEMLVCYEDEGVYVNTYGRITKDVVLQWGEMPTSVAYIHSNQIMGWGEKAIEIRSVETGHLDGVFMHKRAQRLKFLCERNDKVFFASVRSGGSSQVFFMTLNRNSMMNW

Chain of Cyclin-dependent kinase 5 (Homo sapiens) (Q00535 whole entry, looked up): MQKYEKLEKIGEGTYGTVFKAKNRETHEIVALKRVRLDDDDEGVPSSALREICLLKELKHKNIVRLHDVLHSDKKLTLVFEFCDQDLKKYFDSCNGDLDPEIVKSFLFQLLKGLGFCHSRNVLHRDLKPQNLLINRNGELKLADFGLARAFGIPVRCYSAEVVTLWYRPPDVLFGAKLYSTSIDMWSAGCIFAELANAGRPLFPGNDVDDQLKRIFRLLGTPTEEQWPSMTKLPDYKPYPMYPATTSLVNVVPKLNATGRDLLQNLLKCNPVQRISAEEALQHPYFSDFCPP
Chain of Phosphatidylinositol 3-kinase catalytic subunit type 3 (Homo sapiens) (Q8NEB9 whole entry): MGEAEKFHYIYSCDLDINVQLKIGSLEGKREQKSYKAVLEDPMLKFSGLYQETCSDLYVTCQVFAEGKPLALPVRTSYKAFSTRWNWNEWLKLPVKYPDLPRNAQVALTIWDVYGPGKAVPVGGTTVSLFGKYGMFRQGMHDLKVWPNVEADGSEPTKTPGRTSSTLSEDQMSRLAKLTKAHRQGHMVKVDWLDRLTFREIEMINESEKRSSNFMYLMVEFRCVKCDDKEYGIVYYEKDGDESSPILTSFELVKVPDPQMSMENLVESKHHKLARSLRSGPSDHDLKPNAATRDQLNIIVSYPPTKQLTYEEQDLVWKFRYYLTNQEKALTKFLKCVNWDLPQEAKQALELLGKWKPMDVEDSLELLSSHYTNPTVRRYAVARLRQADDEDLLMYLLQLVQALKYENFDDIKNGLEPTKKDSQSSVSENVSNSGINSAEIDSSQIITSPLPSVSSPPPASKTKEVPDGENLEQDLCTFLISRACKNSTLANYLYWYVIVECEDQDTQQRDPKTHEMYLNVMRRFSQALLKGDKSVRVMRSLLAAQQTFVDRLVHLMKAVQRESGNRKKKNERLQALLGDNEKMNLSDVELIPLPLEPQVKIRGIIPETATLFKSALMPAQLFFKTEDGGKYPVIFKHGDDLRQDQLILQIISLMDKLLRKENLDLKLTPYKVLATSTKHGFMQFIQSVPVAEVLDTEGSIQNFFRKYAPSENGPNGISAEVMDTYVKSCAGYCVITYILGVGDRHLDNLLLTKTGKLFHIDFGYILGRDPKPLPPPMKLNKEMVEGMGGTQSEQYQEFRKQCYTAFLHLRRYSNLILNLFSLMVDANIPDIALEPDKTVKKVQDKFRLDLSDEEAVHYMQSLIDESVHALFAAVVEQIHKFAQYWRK
Chain of Serine/threonine-protein kinase PLK1 (Homo sapiens) (P53350 whole entry): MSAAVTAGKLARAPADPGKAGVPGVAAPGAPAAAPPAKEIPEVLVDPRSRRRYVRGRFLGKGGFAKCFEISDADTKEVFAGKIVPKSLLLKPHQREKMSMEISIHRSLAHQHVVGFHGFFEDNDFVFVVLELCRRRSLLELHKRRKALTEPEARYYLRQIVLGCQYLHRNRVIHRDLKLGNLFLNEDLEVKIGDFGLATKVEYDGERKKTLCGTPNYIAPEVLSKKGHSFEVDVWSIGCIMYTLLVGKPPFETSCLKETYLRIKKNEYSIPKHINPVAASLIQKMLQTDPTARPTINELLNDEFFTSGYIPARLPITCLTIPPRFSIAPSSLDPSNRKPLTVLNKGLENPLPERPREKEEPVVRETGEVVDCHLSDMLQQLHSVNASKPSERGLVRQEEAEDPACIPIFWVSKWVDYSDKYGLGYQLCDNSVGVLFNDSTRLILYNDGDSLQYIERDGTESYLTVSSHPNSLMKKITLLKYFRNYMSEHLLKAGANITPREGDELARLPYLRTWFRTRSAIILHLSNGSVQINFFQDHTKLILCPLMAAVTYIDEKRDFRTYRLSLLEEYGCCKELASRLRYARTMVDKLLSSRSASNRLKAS
Chain of Cyclin-dependent kinase 1 (Homo sapiens) (P06493 whole entry, looked up): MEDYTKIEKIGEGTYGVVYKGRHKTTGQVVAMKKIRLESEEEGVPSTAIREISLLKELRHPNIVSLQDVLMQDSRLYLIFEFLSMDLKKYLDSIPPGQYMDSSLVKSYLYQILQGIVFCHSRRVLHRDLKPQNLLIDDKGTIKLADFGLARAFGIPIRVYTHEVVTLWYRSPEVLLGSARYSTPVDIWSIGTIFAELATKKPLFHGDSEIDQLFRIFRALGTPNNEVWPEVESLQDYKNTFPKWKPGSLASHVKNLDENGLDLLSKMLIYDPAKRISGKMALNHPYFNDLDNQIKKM

C[C@H]1COc2c(NCCCn3cccn3)c(F)c(N)c3c(=O)c(C#N)cn1c23
< 35%: inhibition at 0.1 µM (HL-60 [1]) | inhibition [2] | inhibition [3] | inhibition at 0.1 µM (HL-60 [4]) | inhibition at 0.1 µM (HL-60 [5]) | inhibition [6] | inhibition [7] | inhibition at 0.1 µM (HL-60 [8]) | inhibition [9] | inhibition [10] | inhibition [11] | inhibition [12]

C[C@H]1COc2c(NCCCc3ccccn3)c(F)c(N)c3c(=O)c(C#N)cn1c23
< 35%: inhibition at 0.1 µM (HL-60 [1]) | inhibition [2] | inhibition [3] | inhibition at 0.1 µM (HL-60 [4]) | inhibition at 0.1 µM (HL-60 [5]) | inhibition [6] | inhibition [7] | inhibition at 0.1 µM (HL-60 [8]) | inhibition [9] | inhibition [10] | inhibition [11] | inhibition [12]

C[C@H]1COc2c(NCCCn3cccn3)c(F)c(N)c3c(=O)c(C(=O)O)cn1c23
< 35%: inhibition at 0.1 µM (HL-60 [1]) | inhibition [2] | inhibition [3] | inhibition at 0.1 µM (HL-60 [4]) | inhibition at 0.1 µM (HL-60 [5]) | inhibition [6] | inhibition [7] | inhibition at 0.1 µM (HL-60 [8]) | inhibition [9] | inhibition [10] | inhibition [11] | inhibition [12]

C[C@H]1COc2c(NCCCc3ccccn3)c(F)c(N)c3c(=O)c(C(=O)O)cn1c23
< 35%: inhibition at 0.1 µM (HL-60 [1]) | inhibition [2] | inhibition [3] | inhibition at 0.1 µM (HL-60 [4]) | inhibition at 0.1 µM (HL-60 [5]) | inhibition [6] | inhibition [7] | inhibition at 0.1 µM (HL-60 [8]) | inhibition [9] | inhibition [10] | inhibition [11] | inhibition [12]
